Experimental findings from patent US11186581B2, “2-(1,3-dimethyl-2,6-dioxo-1,2,3,6-tetrahydro-7H-purin-7-yl)-N-(6-(2-hydroxyphenyl)pyridazin-3-yl)acetamide as a Wnt pathway modulator” (Agency for Science, Technology and Research, priority 2017, dated 2021) are described below.

This assay concerns HEK293-STF3A cells. Nature of the assay: STF3A assay (Wnt reporter luciferase). Type of assay: cell-based. Conditions: Homo sapiens, 24 h, 1 day of treatment, read-out: IC50 activities on STF3A cells. As for the experimental part:
HEK293-STF cell line was modified from Human embryonic kidney cell line HEK293 transfected with the STF reporter. HEK293-STF3 A cell line was further modified from HEK293-STF cell line to express Wnt3A. This cell line was used to identify compounds that regulate either early or late signalling components of the Wnt pathway. L-Wnt3 A (ATCC, #CRL-2647) cell line was used for providing Wnt3 A conditioned media. The three cell lines were grown in DMEM (Dulbecco's Modified Eagle Medium) with 10% FBS (fetal bovine serum) incubated in 37° C. with 5% CO2.
2×10^4 HEK293-STF3A cells in 75 μl culture media were seeded in each well of white 96 well plates (Greiner #655098) and incubated overnight at 37° C. 25 μl serially diluted compound was added to the cells to give final concentration of 50 μM to 1.5 nM. After 1 day of treatment, 100 μl of Steady-Glo® Luciferase Assay reagent (#E2520, Promega) was added to each well and incubated for 10 minutes at room temperature. Luminescence was measured using Tecan Safire2® plate reader.

The IC50 is the concentration that gives 50% inhibition. As to `COc1ccccc1-c1ccc(NC(=O)Cn2cnc3c2c(=O)n(C)c(=O)n3C)nn1` [Compound 2, reference compound], the IC50 was above 10 µM.
